Measured values taken from patent US8101389B2, “Bacterial glutamine synthetases and methods of use” (Athenix Corp, priority 2006, dated 2012).

What was measured:
[1] = target: Serratia marcescens glutamine synthetase AGS1 variant AGS1(AD-), tyrosine 398 to phenylalanine, SEQ ID NO:44 (Serratia marcescens, UniProt A0A0F6KS08, Y398F); assay: enzymatic assay, kinetics of AGS1(AD-); format: biochemical
Procedure: ags1(ad-) (SEQ ID NO:43) encoding the AGS1(AD-) protein (SEQ ID NO:44), is a variant of ags1 in which the putative adenylylation site has been removed by mutating the tyrosine at position 398 of AGS1 to a phenylalanine by site directed mutagenesis.
(§1) The unmodified enzyme (AGS1) was compared to AGS1(AD-) and AGS1m17(AD-) by carrying out enzymatic assays on both enzymes following purification from E. coli. A glutamine synthetase enzyme from E. coli (GlnA) was also tested.

[2] = target: Serratia marcescens glutamine synthetase AGS1 variant AGS1m17(AD-), F81S, P185S, H212T, V214A, G218S, I303N plus tyrosine 398 to phenylalanine, SEQ ID NO:46 (Serratia marcescens, UniProt A0A0F6KS08, F81S/G218S/H212T/I303N/P185S/V214A/Y398F); assay: enzymatic assay, kinetics of AGS1m17(AD-); format: biochemical
Chain of Serratia marcescens glutamine synthetase AGS1 variant AGS1m17(AD-), F81S, P185S, H212T, V214A, G218S, I303N plus tyrosine 398 to phenylalanine, SEQ ID NO:46 (A0A0F6KS08 whole entry F81S/P185S/H212T/V214A/G218S/I303N/Y398F): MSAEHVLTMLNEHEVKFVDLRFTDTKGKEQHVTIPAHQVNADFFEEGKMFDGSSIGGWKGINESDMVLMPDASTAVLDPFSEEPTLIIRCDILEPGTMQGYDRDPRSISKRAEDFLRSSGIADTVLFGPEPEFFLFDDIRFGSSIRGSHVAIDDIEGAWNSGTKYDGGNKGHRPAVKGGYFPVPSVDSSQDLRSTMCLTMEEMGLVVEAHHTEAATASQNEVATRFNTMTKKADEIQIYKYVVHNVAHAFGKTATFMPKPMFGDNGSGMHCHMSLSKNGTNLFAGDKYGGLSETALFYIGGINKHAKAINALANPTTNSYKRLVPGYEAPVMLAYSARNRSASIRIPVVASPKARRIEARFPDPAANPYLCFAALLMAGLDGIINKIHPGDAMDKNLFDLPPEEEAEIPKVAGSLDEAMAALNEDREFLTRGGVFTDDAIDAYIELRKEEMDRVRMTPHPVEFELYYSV
Procedure: ags1m17(ad-) (SEQ ID NO:45) encoding the AGS1m17(AD-) protein (SEQ ID NO:46), is a variant of ags1m17 in which the putative adenylylation site has been removed by mutating the tyrosine at position 398 of AGS1 to a phenylalanine by site directed mutagenesis.
as §1

[3] = tested on: E. coli cells with AGS1 variant AGS1m1 (pAX3421), V39I, V214M, SEQ ID NO:4; assay: growth of E. coli on glufosinate plates, ags1m1; format: cell-based
Procedure: (§2) Mutants of the bacterial glutamine synthetase gene ags1 (SEQ ID NO:1) were created by error-prone mutagenesis using the GENEMORPH® Random Mutagenesis kit, and also using oligo-directed mutagenesis as known in the art. However, many methods are available for creating libraries of mutants. The resulting mutants were cloned into a pUC19 vector, electroporated into either XL-1 or DH5 alpha E. coli cells, and selected for growth on M63+ agar media containing antibiotic and 2, 10, or 20 mM glufosinate. Twenty-two clones were identified as growing on 20 mM glufosinate, and picked for further analysis.
(§3) ags1m2 was mutagenized by error-prone mutagenesis using GENEMORPH® II Random Mutagenesis kit (Stratagene) according to manufacturer's instructions. Mutagenized PCR product was digested with Sac I and Hind III, and ligated into a pUC vector, similarly digested with Sac I and Hind III. Ligations were transformed into E. coli cells, and plated onto M63+ plates containing antibiotic, and 125 mM glufosinate. Clones growing on 125 mM glufosinate plates were retested on 200 mM glufosinate plates, and compared to similar platings of ags1m1 and ags1m2. […] The DNA sequence of the ags open reading frame in pAX3439 was sequenced, and the gene designated as ags1m16. The DNA sequence of ags1m16 is represented herein as SEQ ID NO:31, and the amino acid sequence is represented herein as SEQ ID NO:32. […]

[4] = tested on: E. coli cells with AGS1 variant AGS1m2 (pAX3422), F81S, P185S, G218S, I303N, SEQ ID NO:6; assay: growth of E. coli on herbicide plates, ags1m2; format: cell-based; settings: 200 mM glufosinate
Procedure: as §2, §3

[5] = tested on: E. coli cells with AGS1 variant AGS1m18, F81S, P185S, H212T, V214S, G218S, I303N, SEQ ID NO:36; assay: growth of E. coli on glufosinate plates, ags1m18; format: cell-based
Procedure: (§4) Clones expressing AGS1m17, AGS1m18, AGS1m19, or AGS1m20 were all found to be able to grow on plates containing 375 mM glufosinate, whereas no growth of clones expressing AGS1m16 was observed on plates containing 375 mM glufosinate.

[6] = tested on: E. coli cells with AGS1 variant AGS1m20, F81S, P185S, H212M, V214H, G218S, I303N, SEQ ID NO:40; assay: growth of E. coli on glufosinate plates, ags1m20; format: cell-based
Procedure: as §4

[7] = tested on: ags1 glutamine synthetase enzyme; assay: Enzymatic activity of purified 6Xhis-tagged glutamine synthetases with and without glufosinate; format: biochemical, Serratia marcescens; settings: 100 uM glufosinate
Source text: (§5) ags1m1 (pAX3421) and ags1m2 (pAX3422) were subcloned into E. coli expression vector pRSF1B (Invitrogen) so as to create an N-terminus encoding a 6Xhis tag, purified and characterized kinetically.

[8] = target: Serratia marcescens glutamine synthetase AGS1 variant AGS1m1 (pAX3421), V39I, V214M, SEQ ID NO:4 (Serratia marcescens, UniProt A0A0F6KS08, V214M/V39I); assay: enzymatic assay of purified 6Xhis AGS1m1 with glufosinate; format: biochemical; settings: 100 uM glufosinate
Chain of Serratia marcescens glutamine synthetase AGS1 variant AGS1m1 (pAX3421), V39I, V214M, SEQ ID NO:4 (A0A0F6KS08 whole entry V39I/V214M): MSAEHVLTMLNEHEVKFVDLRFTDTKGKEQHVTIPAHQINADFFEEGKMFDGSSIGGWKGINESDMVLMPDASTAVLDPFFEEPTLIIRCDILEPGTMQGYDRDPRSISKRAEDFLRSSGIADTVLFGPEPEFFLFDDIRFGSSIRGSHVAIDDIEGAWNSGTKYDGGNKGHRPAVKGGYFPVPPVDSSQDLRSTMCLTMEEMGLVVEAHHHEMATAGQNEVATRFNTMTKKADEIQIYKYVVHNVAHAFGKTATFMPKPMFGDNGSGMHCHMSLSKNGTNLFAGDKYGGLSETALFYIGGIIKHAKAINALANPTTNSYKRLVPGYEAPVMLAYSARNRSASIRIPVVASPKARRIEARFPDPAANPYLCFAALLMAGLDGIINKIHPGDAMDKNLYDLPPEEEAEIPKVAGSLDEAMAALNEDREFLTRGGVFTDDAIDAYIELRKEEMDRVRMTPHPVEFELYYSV
Source text: as §5

[9] = tested on: E. coli cells with AGS1 variant AGS1m17, F81S, P185S, H212T, V214A, G218S, I303N, SEQ ID NO:34; assay: growth of E. coli on glufosinate plates, ags1m17; format: cell-based
Procedure: as §4

[10] = Table 5, Km glutamate, Ki glufosinate

Chain of Serratia marcescens glutamine synthetase AGS1 variant AGS1(AD-), tyrosine 398 to phenylalanine, SEQ ID NO:44 (A0A0F6KS08 whole entry Y398F): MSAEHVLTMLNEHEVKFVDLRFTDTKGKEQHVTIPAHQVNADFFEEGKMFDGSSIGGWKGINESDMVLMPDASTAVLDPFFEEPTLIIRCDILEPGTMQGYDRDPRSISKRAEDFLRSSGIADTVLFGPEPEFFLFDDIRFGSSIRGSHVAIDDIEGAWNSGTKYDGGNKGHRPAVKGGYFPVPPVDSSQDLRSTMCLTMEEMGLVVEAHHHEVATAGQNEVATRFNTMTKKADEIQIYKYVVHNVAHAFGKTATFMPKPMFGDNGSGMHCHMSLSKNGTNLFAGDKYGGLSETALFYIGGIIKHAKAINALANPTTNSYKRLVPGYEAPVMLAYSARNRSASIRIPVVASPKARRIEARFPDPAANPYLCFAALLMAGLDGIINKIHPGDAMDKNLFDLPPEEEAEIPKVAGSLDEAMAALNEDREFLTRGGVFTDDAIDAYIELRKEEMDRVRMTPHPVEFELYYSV

CP(=O)(O)CCC(N)C(=O)O (stereo not drawn) [glufosinate]
Ki [1]: 0.013 mM
(Kcat*Ki)/Km [1, 10]: 12.59
Ki [2]: 23 mM
(Kcat*Ki)/Km [2, 10]: 110.04
growth on 200 mM glufosinate plates ([3]; 200 mM glufosinate): did not grow
growth on glufosinate minimal M63+ agar media ([3]; 2, 10, 20, 50, and 100 mM, DH5a, Clone 2): shown to grow
growth on 200 mM glufosinate plates [4]: did not grow
growth on plates containing 375 mM glufosinate [5]: able to grow
growth on plates containing 375 mM glufosinate [6]: able to grow
inhibition of wild type ags1 glutamine synthetase enzyme [7]: completely inhibited
activity in the presence of glufosinate [8]: showed activity
growth on plates containing 375 mM glufosinate [9]: able to grow
